Measured values as given in patent publication US20250257064A1, “TRIFLUOROMETHYL-SUBSTITUTED SULFONAMIDE AS BCL-2-SELECTIVE INHIBITOR” (Chia Tai Tianqing Pharmaceutical Group Co., Ltd., priority 2018, published 2025).

Experiments:
[1] = system: RS4;11 cells; test: Inhibitory effect on proliferation of RS4;11 cells (CCK-8); type: cell-based, human; conditions: Homo sapiens, RS4-11, 72 h
Summary of the method: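 RS4;11 cells were seeded at 1×10^5 cells/mL in RPMI with 5% FBS and incubated 24 h at 37° C, 5% CO2 before compound addition in duplicate. Inhibition was calculated against untreated and blank controls. IC50 came from a four-parameter fit of log concentration versus inhibition.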

[2] = Pharmacokinetics in rats; type: in vivo; conditions: Sprague-Dawley, rat, plasma, po, SD rats, IG 5 mg/kg; for AUC(0-t): read-out: AUC(0-24 h); for MRT last: read-out: MRT(0-t)
Experimental: 4.1 Pharmacokinetics in Rats
SD rats weighing 180-220 g were randomly grouped with 3 rats in each group after 3-5 days of adaptive feeding, and intragastrically administered with compounds 1-1 and 8-1 at a dosage of 5 mg/kg.
The animals to be tested (SD rats) were fasted for 12 h before administration and fed 4 h after administration, and water was freely drunk before, after and during the experiment.
After intragastric administration, about 0.2 mL of blood was collected from the orbit at 0 min, 15 min, 30 min, 1 h, 2 h, 4 h, 6 h, 8 h, 10 h and 24 h, and after anticoagulation with EDTA-K2, blood samples were transferred to a centrifuge within 30 min, and centrifuged at 4000 rpm for 10 min at 4° C. to separate the plasma. All plasma samples were collected and immediately stored at −20° C. for testing.
(§1) 50 μL of the plasma sample to be tested was added with 300 μL of acetonitrile solution containing an internal standard (20 mg/mL diazepam), shaken and mixed well for 5 min, and centrifuged at 13,000 rpm for 10 min. 75 μL of supernatant was taken and diluted with 75 μL of ultrapure water. After being mixed well, 2 μL of the resulting sample was taken for LC/MS/MS determination, and a chromatogram was recorded.
Oral exposure of the compounds disclosed herein was evaluated by in vivo pharmacokinetic experiments in rats.

[3] = system: human platelet Caspase-3 activity; test: Human platelet toxicity experiment (Caspase-3 activity assay); type: cell-based; conditions: compound concentration 1 μM, 90 min; data normalized, reference ABT-199
Experimental: Experimental Example 6: Human Platelet Toxicity Experiment (Caspase-3 Activity Assay)
10 mL of human whole blood was collected using a heparin sodium anticoagulation tube, mixed well by turning upside down, and centrifuged at 90 g for 10 min. The supernatant was collected and centrifuged at 1950 g for 10 min. The supernatant was discarded, and the residue was resuspended in 4 mL of PBS, and centrifuged at 1190 g for 5 min, and the procedure was repeated once. The supernatant was discarded, and the platelets were resuspended in PBS and adjusted to the density of 2-3×10^8 cells/mL. Cells were seeded into a 96-well plate at a density of 2-3×10^7 cells/mL and at 100 μL/well. 50 μL of control buffer was added to each negative control well, and 50 μL of compound at a corresponding concentration was added to each compound well, so that the final concentration of the compound was 2.5 μM, 2 μM, 1 μM or 0.5 μM, followed by incubation in an incubator at 37° C. for 90 min. The liquids in the 96-well plate were transferred to 1.5 mL centrifuge tubes, respectively. The tubes were centrifuged at 4° C. and 6000 g for 5 min, and placed on ice for later use after the supernatant was discarded. 5× lysis buffer was diluted into 1× lysis buffer with water in the kit, and protease inhibitor cocktail was added at a 1:200 ratio to prepare a lysis mixture for later use. 40 μL of lysis mixture was added to each centrifuge tube, and the platelets at the bottom were resuspended using a pipette. The suspension was lysed on ice for 15-20 min and centrifuged at 4° C. and 14,000 g for 10 min. The sample was sub-packaged for later use. 10× assay buffer was diluted into 1× assay buffer with water in the kit, and substrate Ac-DEVD-AMC was added at a 1:600 ratio to prepare a reaction mixture. 5 μL of assay buffer and 40 μL of reaction mixture were added to each blank control well. 5 μL of control platelet lysate and 40 μL of reaction mixture were added to each negative control well. 5 μL of platelet lysate and 40 μL of reaction mixture were added to each compound well. In this procedure, 40 μL of reaction mixture was added at last. The resulting mixture was mixed gently, and the plate was read by a PE Envision multi-functional microplate reader (excitation: 360 nm, emission: 460 nm) once every 10 min for 6 times. Caspase-3 activity was determined based on the intensity of the released AMC fluorescence, that is the slope of the fitted line to which each well corresponds represents Caspase activity (all data were normalized and the reference was ABT-199).

[4] = Pharmacokinetics in beagle dogs; type: in vivo; conditions: male, dog, plasma, po, intragastric 2.5 mg/kg
Experimental: 4.2 Pharmacokinetics in Beagle Dogs
3 male beagle dogs weighing 9-12 kg were intragastrically administered with the test compounds at a dosage of 2.5 mg/kg after adaptive feeding for a period of time.
The animals to be tested (male beagle dogs) were fasted for 12 h before administration and fed 4 h after administration, and water was freely drunk before, after and during the experiment.
After intragastric administration, about 0.5 mL of blood was collected from forelimb vein at 0.25 h (15 min), 0.5 h (30 min), 1 h, 1.5 h, 2 h, 4 h, 6 h, 8 h, 10 h, 24 h, 30 h, 48 h and 72 h, and placed in an EDTA-K2 anticoagulation tube. Blood samples were transferred to a centrifuge within 30 min, and centrifuged at 4000 rpm for 10 min at 4° C. to separate the plasma. All plasma samples were collected and immediately stored at −20° C. for testing.
as §1, with “(20 ng/mL” for “(20 mg/mL”, “well, 1” for “well, 2”
Oral exposure of the compounds disclosed herein was evaluated by in vivo pharmacokinetic experiments in beagle dogs.

CC1(C)CCC(CN2CCN(c3ccc(C(=O)NS(=O)(=O)c4ccc(NCC5CCOCC5)c([N+](=O)[O-])c4)c(Oc4cnc5[nH]ccc5c4)c3)CC2)=C(c2ccc(C(F)(F)F)cc2Cl)C1 [Compound 1-1, 4-(4-{[2-(2-chloro-4-trifluoromethylphenyl)-4,4-dimethylcyclohex-1-enyl]methyl}-piperazin-1-yl)-N-({3-nitro-4-[(tetrahydro-2H-pyran-4-ylmethyl)amino]phenyl}sulfonyl)-2-(1H-pyrrolo[2,3-b]pyridin-5-yloxy)-benzamide]
IC50 [1]: 2.3 nM | AUC(0-inf) [2]: 4460 ± 1340 ng·h/mL | Cmax [2]: 378 ± 83.5 ng/mL | Tmax [2]: 4 h | half-life [2]: 8.73 ± 0.31 h | AUC(0-t) [2]: 3700 ± 848 ng·h/mL | MRT last [2]: 8.95 ± 4.99 h | human platelet Caspase-3 activity, Slope [3]: 0.67

CC1(C)CCC(CN2CCN(c3ccc(C(=O)NS(=O)(=O)c4ccc(NC[C@H]5COCCO5)c([N+](=O)[O-])c4)c(Oc4cnc5[nH]ccc5c4)c3)CC2)=C(c2ccc(C(F)(F)F)cc2Cl)C1 [Compound 8-1]
AUC(0-inf) [2]: 6560 ± 1800 ng·h/mL | Cmax [2]: 739 ± 226 ng/mL | Tmax [2]: 4 h | half-life [2]: 7.62 ± 2.78 h | AUC(0-t) [2]: 5970 ± 2020 ng·h/mL | MRT last [2]: 7.35 ± 0.45 h | human platelet Caspase-3 activity, Slope [3]: 0.59 | AUC(0-inf) [4]: 27700 ± 14200 ng·h/mL | Cmax [4]: 1430 ± 769 ng/mL | MRT last [4]: 17.2 ± 1.62 h | Tmax [4]: 3.33 ± 1.16 h | AUC(0-t) ([4]; read-out: AUC0-72 h): 26300 ± 13600 ng·h/mL | half-life ([4]; read-out: T½ (converted)): 19.5 ± 1.64 h
